Read-outs that look alike come from different tables or passages of the source.
Tested on: Influenza type A (strain A/PR/8/34, ATCC VR-95)
Assay: Influenza antiviral assay: inhibition of virus-induced cytopathic effects (CPE) in MDCK cells, XTT dye reduction
Format: cell-based
Details: read-out: Influenza H1N1 affinity, EC50
[1] = Influenza A virus, H1N1 / PR/8, MDCK, 96 h, Influenza A (H1N1) replication in MDCK cells, CPE reduction by XTT at 4 days post-infection
[2] = Influenza A (H1N1) replication in MDCK cells, CPE reduction by XTT at 4 days post-infection

Row | SMILES | EC50 [1] [µM] | other results
1 | O=C(Nc1ccc(C(F)(F)F)cc1)c1c(O)c(=O)ccn1NC1c2ccccc2COc2ccccc21 (stereo not shown) [Compound 35] | > 100 | 
2 | O=C(Nc1ccc(-c2ccccc2)cc1)c1c(O)c(=O)ccn1NC1c2ccccc2COc2ccccc21 (stereo not shown) [Compound 36] | > 100 | 
3 | O=C(NCc1cccc(C(F)(F)F)c1)c1c(O)c(=O)ccn1NC1c2ccccc2COc2ccccc21 (stereo not shown) [Compound 37] | > 100 | 
4 | CNC(=O)c1c(O)c(=O)ccn1CC(c1ccccc1)c1ccccc1 [Compound 38] | > 100 | 
5 | CN(C(c1ccccc1)c1ccccc1)n1ccc(=O)c(O)c1 [Compound 39] | > 100 | 
6 | O=C(O)c1c(O)c(=O)ccn1NC1c2ccccc2SCc2c1ccc(F)c2F (stereo not shown) [Compound 40, 1-((7,8-difluoro-6,11-dihydrodibenzo[b,e]thiepin-11-yl)amino)-3-hydroxy-4-oxo-1,4-dihydropyridine-2-carboxylic acid] | 1 to 10 | 
7 | CNC(=O)c1c(O)c(=O)ccn1NC1c2ccccc2SCc2c1ccc(F)c2F (stereo not shown) [Compound 41] | > 100 | 
8 | O=C(NCC(F)(F)F)c1c(O)c(=O)ccn1NC1c2ccccc2SCc2c1ccc(F)c2F (stereo not shown) [Compound 42, 1-((7,8-difluoro-6,11-dihydrodibenzo[b,e]thiepin-11-yl)amino)-3-hydroxy-4-oxo-N-(2,2,2-trifluoroethyl)-1,4-dihydropyridine-2-carboxamide] | 1 to 10 | 
9 | O=c1ccn(NC2c3ccccc3SCc3c2ccc(F)c3F)cc1O (stereo not shown) [Compound 43, 1-((7,8-difluoro-6,11-dihydrodibenzo[b,e]thiepin-11-yl)amino)-3-hydroxypyridin-4(1H)-one] | > 100 | 
10 | CNC(=O)c1c(O)c(=O)ccn1NC1CCN(Cc2ccccc2)c2ccccc21 (stereo not shown) [Compound 44] | > 100 | 
11 | CNC(=O)c1c(O)c(=O)ccn1NC1CCN(C)c2ccccc21 (stereo not shown) [Compound 45] | > 100 | 
12 | CNC(=O)c1c(O)c(=O)ccn1NC1CCCN(C)c2ccccc21 (stereo not shown) [Compound 46] | > 100 | 
13 | O=C(Nc1ccc2ccccc2c1)c1c(O)c(=O)ccn1NC1c2ccccc2COc2ccccc21 (stereo not shown) [Compound 47] | > 100 | 
14 | O=C(Nc1cccc(C(F)(F)F)c1)c1c(O)c(=O)ccn1CC1c2ccccc2COc2ccccc21 (stereo not shown) [Compound 48] | > 100 | 
15 | O=C(Nc1ccccc1)c1c(O)c(=O)ccn1CC1c2ccccc2COc2ccccc21 (stereo not shown) [Compound 49] | > 100 | 
16 | O=C(NCC1c2ccccc2COc2ccccc21)c1c(O)c(=O)ccn1CC1c2ccccc2COc2ccccc21 (stereo not shown) [Compound 50] |  | EC50 [2]: 1 to 10 µM
17 | O=C(NCc1ccccc1)c1c(O)c(=O)ccn1CC1c2ccccc2COc2ccccc21 (stereo not shown) [Compound 51] | > 100 | 
18 | CNC(=O)c1c(O)c(=O)ccn1CC1c2ccccc2COc2ccccc21 (stereo not shown) [Compound 52] | > 100 | 
19 | CNC(=O)c1c(O)c(=O)ccn1NC1CCCN(Cc2ccccc2)c2ccccc21 (stereo not shown) [Compound 54] | > 100 | 
20 | CNC(=O)c1c(O)c(=O)ccn1NC1CCOCc2ccccc21 (stereo not shown) [Compound 56] | > 100 | 
21 | CN(Cc1ccccc1)C(=O)c1c(O)c(=O)ccn1CC1c2ccccc2COc2ccccc21 (stereo not shown) [Compound 57] | > 100 | 
22 | O=C(O)c1c(O)c(=O)ccn1NC1c2cc(Cl)ccc2COc2ccc(Cl)cc21 (stereo not shown) [Compound 58, 1-((2,9-dichloro-6,11-dihydrodibenzo[b,e]oxepin-11-yl)amino)-3-hydroxy-4-oxo-1,4-dihydropyridine-2-carboxylic acid] | 10 to 100 | 
23 | O=C(O)c1c(O)c(=O)ccn1NC1c2ccccc2CSc2ccccc21 (stereo not shown) [Compound 59] | 10 to 100 | 
24 | O=C(O)c1c(O)c(=O)ccn1NC1c2ccccc2COc2cc(Cl)c(Cl)cc21 (stereo not shown) [Compound 60] | 10 to 100 | 

Row | SMILES | EC50 [1] [µM] | other results
25 | CNC(=O)c1c(O)c(=O)ccn1NC(c1ccccc1)c1ccccc1 [Compound 61] | > 100 | 
26 | CNC(=O)c1cn(CC2c3ccccc3COc3ccccc32)c(C(=O)NC)c(O)c1=O (stereo not shown) [Compound 65, 1-((6,11-dihydrodibenzo[b,e]oxepin-11-yl)methyl)-3-hydroxy-N2,N5-dimethyl-4-oxo-1,4-dihydropyridine-2,5-dicarboxamide] |  | EC50 (Influenza A virus, H1N1 / PR/8, MDCK, 96 h): > 100 µM
27 | O=C(O)c1c(O)c(=O)ccn1NC1c2ccccc2OCc2c(F)cccc21 (stereo not shown) [Compound 66] | 10 to 100 | 
28 | O=C(O)c1c(O)c(=O)ccn1NC(c1ccccc1)c1ccccc1 [Compound 67] | > 100 | 
29 | O=C(O)c1c(O)c(=O)ccn1NC(c1cccc2ccccc12)c1cccc2ccccc12 [Compound 68] | > 100 | 
30 | CNC(=O)c1c(O)c(=O)ccn1NC(c1cccc2ccccc12)c1cccc2ccccc12 [Compound 69] | > 100 | 
31 | CNC(=O)c1c(O)c(=O)ccn1N(Cc1ccccc1)C1c2ccccc2COc2ccccc21 (stereo not shown) [Compound 72] | > 100 | 
32 | O=C(O)c1cn(CC2c3ccccc3COc3ccccc32)c(C(=O)O)c(O)c1=O (stereo not shown) [Compound 73] | > 100 | 
33 | CNC(=O)c1c(O)c(=O)ccn1NC1c2ccccc2OCc2c(F)cccc21 (stereo not shown) [Compound 74] | > 100 | 
34 | O=C(O)c1c(O)c(=O)ccn1NC1c2ccccc2OCc2c1ccc(F)c2F (stereo not shown) [Compound 75] | 10 to 100 | 
35 | CNC(=O)c1c(O)c(=O)ccn1NC1c2ccccc2COc2cc(Cl)c(Cl)cc21 (stereo not shown) [Compound 76, 1-((2,3-dichloro-6,11-dihydrodibenzo[b,e]oxepin-11-yl)amino)-3-hydroxy-N-methyl-4-oxo-1,4-dihydropyridine-2-carboxamide] | > 100 | 
36 | O=C(O)c1c(O)c(=O)ccn1NC1c2ccccc2CSc2cc(Cl)c(Cl)cc21 (stereo not shown) [Compound 77] | 10 to 100 | 
37 | CNC(=O)c1c(O)c(=O)ccn1NC1c2ccccc2CSc2cc(F)c(F)cc21 (stereo not shown) [Compound 78] | 1 to 10 | 
38 | CNC(=O)c1c(O)c(=O)ccn1NC1c2ccccc2CSc2cc(Cl)c(Cl)cc21 (stereo not shown) [Compound 79, 1-((2,3-dichloro-6,11-dihydrodibenzo[b,e]thiepin-11-yl)amino)-3-hydroxy-N-methyl-4-oxo-1,4-dihydropyridine-2-carboxamide] | > 100 | 
39 | O=C(O)c1c(O)c(=O)ccn1NC1c2ccc(F)c(F)c2COc2c1ccc(F)c2F (stereo not shown) [Compound 80] | 1 to 10 | 
40 | O=C(O)c1c(O)c(=O)ccn1NC(c1ccccc1)c1ccc2ccccc2c1 (stereo not shown) [Compound 82] | 10 to 100 | 
41 | O=C(O)c1c(O)c(=O)ccn1NC1c2ccc(C(F)(F)F)cc2COc2ccccc21 (stereo not shown) [Compound 86] | > 100 | 
42 | O=C(O)c1c(O)c(=O)ccn1NC1c2ccccc2CSc2c1ccc(Cl)c2Cl (stereo not shown) [Compound 87] | 1 to 10 | 
43 | O=C(O)c1c(O)c(=O)ccn1NC1c2ccccc2CSc2cc(F)c(F)cc21 (stereo not shown) [Compound 88] | 10 to 100 | 
44 | O=C(O)c1c(O)c(=O)ccn1NC1c2ccc(F)c(F)c2CSc2c1ccc(F)c2F (stereo not shown) [Compound 93] | 1 to 10 | 
45 | O=C(O)c1c(O)c(=O)ccn1NC1c2ccccc2SCc2c1ccc(Cl)c2Cl (stereo not shown) [Compound 94] | 0.1 to 1 | 
46 | O=C(O)c1c(O)c(=O)ccn1NC1c2cc(F)c(F)cc2CSc2ccccc21 (stereo not shown) [Compound 95] | 1 to 10 | 
47 | O=C(O)c1c(O)c(=O)ccn1NC1c2ccccc2SCc2c1ccc(F)c2Br (stereo not shown) [Compound 96] | 0.1 to 1 | 
48 | O=C(O)c1c(O)c(=O)ccn1NC1c2ccccc2SCc2c1ccc(Br)c2Cl (stereo not shown) [Compound 97] | 1 to 10 | 

Row | SMILES | EC50 [1] [µM] | other results
49 | O=C(O)c1c(O)c(=O)ccn1NC1c2ccccc2OCc2c1ccc(Cl)c2Cl (stereo not shown) [Compound 99] | 1 to 10 | 
50 | O=C(O)c1c(O)c(=O)ccn1NC(c1ccc2ccccc2c1)c1ccc2ccccc2c1 [Compound 100] | > 100 | 
51 | O=C(NCC1c2ccccc2COc2ccccc21)c1c(O)c(=O)ccn1CC1c2ccccc2COc2ccccc21 (stereo not shown) [Compound 102] |  | EC50 [2]: > 100 µM
52 | CNC(=O)c1cn(NC2c3ccccc3COc3ccccc32)c(C(=O)NC)c(O)c1=O (stereo not shown) [Compound 103] | > 100 | 
53 | CCOC(=O)c1cn(NC2c3ccccc3COc3ccccc32)c(C(=O)OCC)c(O)c1=O (stereo not shown) [Compound 104] | > 100 | 
54 | O=C(O)c1c(O)c(=O)ccn1NC(c1ccc(F)c(F)c1)c1ccc(F)c(F)c1 [Compound 105] | > 100 | 
55 | O=C(NCC1c2ccccc2COc2ccccc21)c1c(O)c(=O)ccn1CC1c2ccccc2COc2ccccc21 (stereo not shown) [Compound 106] |  | EC50 [2]: > 100 µM
56 | O=C(NCC1c2ccccc2COc2ccccc21)c1c(O)c(=O)ccn1CC1c2ccccc2COc2ccccc21 (stereo not shown) [Compound 107] |  | EC50 [2]: > 100 µM
57 | O=C(NCC1c2ccccc2COc2ccccc21)c1c(O)c(=O)ccn1CC1c2ccccc2COc2ccccc21 (stereo not shown) [Compound 108] |  | EC50 [2]: 1 to 10 µM
58 | O=C(O)c1cn(NC2c3ccccc3COc3ccccc32)c(C(=O)O)c(O)c1=O (stereo not shown) [Compound 109] | 10 to 100 | 
59 | O=C(O)c1c(O)c(=O)ccn1NC1c2ccc(C(F)(F)F)cc2COc2cc(C(F)(F)F)ccc21 (stereo not shown) [Compound 110] | > 100 | 
60 | O=C(O)c1c(O)c(=O)ccn1NC(c1ccccc1)c1cccc2ccccc12 (stereo not shown) [Compound 112] | 10 to 100 | 
61 | CC(C)c1ccc2c(c1)C(Nn1ccc(=O)c(O)c1C(=O)O)c1ccc(F)c(F)c1CS2 (stereo not shown) [Compound 113] | > 100 | 
62 | O=C(O)c1c(O)c(=O)ccn1NC1c2ccc(-c3ccccc3)cc2SCc2c1ccc(F)c2F (stereo not shown) [Compound 114] | 10 to 100 | 
63 | COc1ccc2c(c1)C(Nn1ccc(=O)c(O)c1C(=O)O)c1ccccc1CS2 (stereo not shown) [Compound 115] | > 100 | 
64 | O=C(O)c1c(O)c(=O)ccn1NC1c2cc(OC(F)(F)F)ccc2SCc2c1ccc(F)c2F (stereo not shown) [Compound 116] | 10 to 100 | 
65 | O=C(O)c1c(O)c(=O)ccn1NC1c2cc(Cl)c(Cl)cc2CSc2ccccc21 (stereo not shown) [Compound 117] | 10 to 100 | 
66 | O=C(O)c1c(O)c(=O)ccn1CC1c2ccccc2SCc2c1ccc(F)c2F (stereo not shown) [Compound 118] | > 100 | 
67 | O=C(O)c1cn(NC2c3ccccc3SCc3c2ccc(F)c3F)cc(O)c1=O (stereo not shown) [Compound 120] | 1 to 10 | 
68 | O=C(O)c1c(O)c(=O)ccn1NC1c2ccc(F)c(F)c2CSc2c(-c3ccccc3)cccc21 (stereo not shown) [Compound 121] | > 100 | 
69 | O=C(O)c1c(O)c(=O)ccn1NC1c2ccc(F)c(F)c2CSc2c(-c3ccc(F)cc3)cccc21 (stereo not shown) [Compound 122] | > 100 | 
70 | O=C(O)c1c(O)c(=O)ccn1NC1c2ccc(-c3ccc(F)cc3)cc2SCc2c1ccc(F)c2F (stereo not shown) [Compound 123] | 10 to 100 | 

From patent US12565488B2, “Inhibitors of influenza virus replication” (COCRYSTAL PHARMA, INC., priority 2018, dated 2026)
